# Laboratory results taken from patent US8192962B2, “Processes for detecting toxic substances” (Daikin Industries, Ltd., priority 2001, dated 2012).
# System: Unknown protein yeast genes
# Experiment: DNA chip mRNA expression in yeast, unknown protein yeast genes (Table 1)
# Assay type: cell-based, Saccharomyces cerevisiae S288C
# Method in brief: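 Value is the scanned fluorescence intensity ratio of exposed versus chemical-free cells. Log-phase S288C yeast in YPD at 25° C. received one toxic substance for two hours, dosed to slow growth without killing; Cy3/Cy5-labeled cDNA from oligo-dT-purified mRNA was hybridized to a whole-genome chip at 65° C.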
smiles,measurement,setting,value
"C=CC=O [(14), acrolein]",The level of expressed mRNA in the presence of chemical substance/The level of expressed mRNA in the absence of chemical substance,"yeast gene YKL195W, incubated two hours with chemical substance",1.6
same,The level of expressed mRNA in the presence of chemical substance/The level of expressed mRNA in the absence of chemical substance,"yeast gene YKR091W, incubated two hours with chemical substance",1.9
same,The level of expressed mRNA in the presence of chemical substance/The level of expressed mRNA in the absence of chemical substance,"yeast gene YLR054C, incubated two hours with chemical substance",1.1
same,The level of expressed mRNA in the presence of chemical substance/The level of expressed mRNA in the absence of chemical substance,"yeast gene YLR149C, incubated two hours with chemical substance",1.2
same,The level of expressed mRNA in the presence of chemical substance/The level of expressed mRNA in the absence of chemical substance,"yeast gene YLR152C, incubated two hours with chemical substance",1.2
same,The level of expressed mRNA in the presence of chemical substance/The level of expressed mRNA in the absence of chemical substance,"yeast gene YLR194C, incubated two hours with chemical substance",1.2
same,The level of expressed mRNA in the presence of chemical substance/The level of expressed mRNA in the absence of chemical substance,yeast gene YLR297W,2.3
same,The level of expressed mRNA in the presence of chemical substance/The level of expressed mRNA in the absence of chemical substance,"yeast gene YLR324W, incubated two hours with chemical substance",1.4
same,The level of expressed mRNA in the presence of chemical substance/The level of expressed mRNA in the absence of chemical substance,"yeast gene YLR350W, incubated two hours with chemical substance",2.8
same,The level of expressed mRNA in the presence of chemical substance/The level of expressed mRNA in the absence of chemical substance,"yeast gene YLR387C, incubated two hours with chemical substance",1.7
same,The level of expressed mRNA in the presence of chemical substance/The level of expressed mRNA in the absence of chemical substance,yeast gene YLR460C,3.5
same,The level of expressed mRNA in the presence of chemical substance/The level of expressed mRNA in the absence of chemical substance,"yeast gene YML117W, incubated two hours with chemical substance",0.8
same,The level of expressed mRNA in the presence of chemical substance/The level of expressed mRNA in the absence of chemical substance,"yeast gene YMR009W, incubated two hours with chemical substance",1.9
same,The level of expressed mRNA in the presence of chemical substance/The level of expressed mRNA in the absence of chemical substance,"yeast gene YMR067C, incubated two hours with chemical substance",1.5
same,The level of expressed mRNA in the presence of chemical substance/The level of expressed mRNA in the absence of chemical substance,yeast gene YMR090W,6.5
same,The level of expressed mRNA in the presence of chemical substance/The level of expressed mRNA in the absence of chemical substance,"yeast gene YMR095C, incubated two hours with chemical substance",2.2
same,The level of expressed mRNA in the presence of chemical substance/The level of expressed mRNA in the absence of chemical substance,"yeast gene YMR097C, incubated two hours with chemical substance",2.1
same,The level of expressed mRNA in the presence of chemical substance/The level of expressed mRNA in the absence of chemical substance,"yeast gene YMR102C, incubated two hours with chemical substance",0.7
same,The level of expressed mRNA in the presence of chemical substance/The level of expressed mRNA in the absence of chemical substance,"yeast gene YMR107W, incubated two hours with chemical substance",8.1
same,The level of expressed mRNA in the presence of chemical substance/The level of expressed mRNA in the absence of chemical substance,"yeast gene YMR180C, incubated two hours with chemical substance",1.7
same,The level of expressed mRNA in the presence of chemical substance/The level of expressed mRNA in the absence of chemical substance,"yeast gene YMR184W, incubated two hours with chemical substance",1.5
same,The level of expressed mRNA in the presence of chemical substance/The level of expressed mRNA in the absence of chemical substance,"yeast gene YMR191W, incubated two hours with chemical substance",1.5
same,The level of expressed mRNA in the presence of chemical substance/The level of expressed mRNA in the absence of chemical substance,"yeast gene YMR295C, incubated two hours with chemical substance",1.3
same,The level of expressed mRNA in the presence of chemical substance/The level of expressed mRNA in the absence of chemical substance,"yeast gene YMR316W, incubated two hours with chemical substance",1.3
same,The level of expressed mRNA in the presence of chemical substance/The level of expressed mRNA in the absence of chemical substance,"yeast gene YNL044W, incubated two hours with chemical substance",1.2
same,The level of expressed mRNA in the presence of chemical substance/The level of expressed mRNA in the absence of chemical substance,"yeast gene YNL074C, incubated two hours with chemical substance",0.6
same,The level of expressed mRNA in the presence of chemical substance/The level of expressed mRNA in the absence of chemical substance,"yeast gene YNL092W, incubated two hours with chemical substance",1.2
same,The level of expressed mRNA in the presence of chemical substance/The level of expressed mRNA in the absence of chemical substance,"yeast gene YNL115C, incubated two hours with chemical substance",1.0
same,The level of expressed mRNA in the presence of chemical substance/The level of expressed mRNA in the absence of chemical substance,"yeast gene YNL156C, incubated two hours with chemical substance",1.4
same,The level of expressed mRNA in the presence of chemical substance/The level of expressed mRNA in the absence of chemical substance,"yeast gene YNL234W, incubated two hours with chemical substance",1.5
same,The level of expressed mRNA in the presence of chemical substance/The level of expressed mRNA in the absence of chemical substance,"yeast gene YNL281W, incubated two hours with chemical substance",1.2
same,The level of expressed mRNA in the presence of chemical substance/The level of expressed mRNA in the absence of chemical substance,"yeast gene YNL305C, incubated two hours with chemical substance",1.3
same,The level of expressed mRNA in the presence of chemical substance/The level of expressed mRNA in the absence of chemical substance,"yeast gene YNR068C, incubated two hours with chemical substance",1.8
same,The level of expressed mRNA in the presence of chemical substance/The level of expressed mRNA in the absence of chemical substance,"yeast gene YOL032W, incubated two hours with chemical substance",1.3
same,The level of expressed mRNA in the presence of chemical substance/The level of expressed mRNA in the absence of chemical substance,"yeast gene YOL036W, incubated two hours with chemical substance",1.0
same,The level of expressed mRNA in the presence of chemical substance/The level of expressed mRNA in the absence of chemical substance,"yeast gene YOL047C, incubated two hours with chemical substance",1.2
same,The level of expressed mRNA in the presence of chemical substance/The level of expressed mRNA in the absence of chemical substance,"yeast gene YOL071W, incubated two hours with chemical substance",2.5
same,The level of expressed mRNA in the presence of chemical substance/The level of expressed mRNA in the absence of chemical substance,"yeast gene YOL082W, incubated two hours with chemical substance",1.4
same,The level of expressed mRNA in the presence of chemical substance/The level of expressed mRNA in the absence of chemical substance,"yeast gene YOL083W, incubated two hours with chemical substance",1.4
same,The level of expressed mRNA in the presence of chemical substance/The level of expressed mRNA in the absence of chemical substance,"yeast gene YOL117W, incubated two hours with chemical substance",1.7
same,The level of expressed mRNA in the presence of chemical substance/The level of expressed mRNA in the absence of chemical substance,"yeast gene YOL131W, incubated two hours with chemical substance",2.3
same,The level of expressed mRNA in the presence of chemical substance/The level of expressed mRNA in the absence of chemical substance,yeast gene YOL150C,5.7
same,The level of expressed mRNA in the presence of chemical substance/The level of expressed mRNA in the absence of chemical substance,"yeast gene YOL162W, incubated two hours with chemical substance",1.4
same,The level of expressed mRNA in the presence of chemical substance/The level of expressed mRNA in the absence of chemical substance,"yeast gene YOR019W, incubated two hours with chemical substance",1.4
same,The level of expressed mRNA in the presence of chemical substance/The level of expressed mRNA in the absence of chemical substance,"yeast gene YOR197W, incubated two hours with chemical substance",0.7
same,The level of expressed mRNA in the presence of chemical substance/The level of expressed mRNA in the absence of chemical substance,"yeast gene YPL087W, incubated two hours with chemical substance",1.2
same,The level of expressed mRNA in the presence of chemical substance/The level of expressed mRNA in the absence of chemical substance,"yeast gene YPL196W, incubated two hours with chemical substance",1.6
same,The level of expressed mRNA in the presence of chemical substance/The level of expressed mRNA in the absence of chemical substance,"yeast gene YPL206C, incubated two hours with chemical substance",1.1
same,The level of expressed mRNA in the presence of chemical substance/The level of expressed mRNA in the absence of chemical substance,"yeast gene YPL222W, incubated two hours with chemical substance",1.1
same,The level of expressed mRNA in the presence of chemical substance/The level of expressed mRNA in the absence of chemical substance,"yeast gene YPR023C, incubated two hours with chemical substance",0.9
same,The level of expressed mRNA in the presence of chemical substance/The level of expressed mRNA in the absence of chemical substance,"yeast gene YPR151C, incubated two hours with chemical substance",1.4
